Experimental data taken from patent US4011182A, “Cyclic undecapeptide analogs of somatostatin and intermediates” (American Home Products Corporation, priority 1975, dated 1977).
Where two headings read alike, the source gives them in different places. Where a SMILES comes first, the peptide text is derived from it.

Columns and labels:
growth hormone [1] = test: Growth hormone level by radioimmunoassay in nembutal-treated rats after subcutaneous injection; assay type: in vivo
Protocol: The growth hormone activities of the compounds of Example 5 was determined by injecting rats weighing about 200-250 g. first with nembutal intraperitoneally at a dose of 50 mg/kg then after 5 minutes injecting the rats subcutaneously with a solution of the compound of Example 5 in saline at a dose of 2 mg/kg per rat. Blood samples are taken 15 minutes after injection with the compound of Example 5 and the growth hormone level determined by radioimmunoassay. […] The foregoing experiment was repeated but the dose of the compound of Example 5 was raised to 2.38 mg/kg and the blood was sampled 2 hours after injection.

insulin = test: In vivo assay of simultaneous release of growth hormone, insulin and glucagon (pentobarbital, arginine): insulin; parameters: species or system rats
Protocol: (§1) Another test was conducted with the compound of Example 5 to determine its effect upon insulin and glucagon levels. The in vivo assay determining simultaneous release of growth hormone, insulin and glucagon was carried out by injecting three groups of male rats weighing about 200 to 250 g. (9 animals per group) with pentobarbital […], a subcutaneous injection of SRIF at a dose of 0.2 mg/kg to another group of rats and a subcutaneous injection of saline solution to the third group of rats. Ten minutes after such injection the rats receive 150 mg. arginine in 0.5 ml. saline directly in the heart. Five minutes later the rats are decapitated, the blood collected and various radioimmunoassays are run.

glucagon = test: In vivo assay of simultaneous release of growth hormone, insulin and glucagon (pentobarbital, arginine): glucagon; parameters: species or system rats
Protocol: as §1, with “pentobarbital intraperitoneally at a dose of 50 mg/kg per rat followed 15 minutes” for “pentobarbital”

growth hormone [2] = tested on: growth hormone
Protocol: Another test was conducted with the compound of Example 5 to determine its effect upon insulin and glucagon levels. The in vivo assay determining simultaneous release of growth hormone, insulin and glucagon was carried out by injecting three groups of male rats weighing about 200 to 250 g. (9 animals per group) with pentobarbital intraperitoneally at a dose of 50 mg/kg per rat followed 15 minutes later by a subcutaneous injection of the compound of Example 5 at a dose of 2.7 mg/kg to one group of rats, a subcutaneous injection of SRIF at a dose of 0.2 mg/kg to another group of rats and a subcutaneous injection of saline solution to the third group of rats. Ten minutes after such injection the rats receive 150 mg. arginine in 0.5 ml. saline directly in the heart. Five minutes later the rats are decapitated, the blood collected and various radioimmunoassays are run.

[3] = male rats, 2.7 mg/kg subcutaneously, arginine stimulated

Compound | growth hormone level (growth hormone [1]; rats, 2 mg/kg subcutaneously, blood 15 minutes after injection, control 132 ± 20) [ng/mL] | growth hormone level (growth hormone [1]; rats, 2.38 mg/kg subcutaneously, blood 2 hours after injection, control 244 ± 38) [ng/mL] | insulin levels (insulin; [3]) | glucagon levels (glucagon; [3]) | growth hormone level (growth hormone [1]; rats, 1,500 μg/kg, after four hours, control 182 ± 49) [nanograms per milliliter] | growth hormone level (growth hormone [1]; rats, 1,500 μg/kg, two hours after administration, control 180 ± 27) [nanograms per milliliter] | GH (growth hormone [2]; experiment 1, dose 3,000 μg/kg, control 247±52) [ng/mL] | GH (growth hormone [2]; experiment 2, dose 12 μg/kg, control 315±22) [ng/mL] | Insulin (insulin; experiment 1, dose 3,000 μg/kg, control 194±17) [μU/ml] | Insulin (insulin; experiment 3, dose 3,000 μg/kg, control 183±19) [μU/ml] | Glucagon (glucagon; experiment 3, dose 3,000 μg/kg, control 129±9) [picog/ml]
C[C@@H](O)[C@@H]1NC(=O)[C@H](Cc2ccccc2)NC(=O)[C@H]([C@@H](C)O)NC(=O)[C@H](CCCCN)NC(=O)[C@H](Cc2c[nH]c3ccccc23)NC(=O)[C@H](Cc2ccccc2)NC(=O)[C@H](Cc2ccccc2)NC(=O)[C@H](CC(N)=O)NC(=O)[C@H](CCCCN)NC(=O)CC[C@@H](C(=O)O)NC(=O)[C@H](CO)NC1=O [Example 5, L-lysyl-L-asparaginyl-L-phenylalanyl-L-phenylalanyl-L-tryptophyl-L-lysyl-L- threonyl-L-phenylalanyl-L-threonyl-L-seryl-L-glutamyl (cyclo α-lysyl to γ-glutamyl) peptide] (HELM PEPTIDE1{K.N.F.F.W.K.T.F.T.S.E}$PEPTIDE1,PEPTIDE1,1:R1-11:R3$$$V2.0) | 79 ± 14 | 89 ± 23 | neither glucagon nor insulin levels were lowered | neither glucagon nor insulin levels were lowered | – | – | – | – | – | – | –
L-Lysyl-L-asparaginyl-L-phenylalanyl-L-phenylalanyl-D-tryptophyl-L-lysyl-L- threonyl-L-phenylalanyl-L-threonyl-L-seryl-glutamyl-(cyclo-α-lysyl to γ-glutamyl)peptide [Example 6] | – | – | – | – | 34 ± 11 | 18 ± 4 | 61 ± 7 | 192 ± 29 | 152±13 | 93±9 | 107±9
